Patent US20030013770A1, “Aminobenzophenones as inhibitors of il 1b and tnf” (priority 2001, published 2003)

Experiments:
Format in all cases: cell-based
[1] = system: IL-1β; assay: Inhibition of IL-1β secretion in LPS stimulated peripheral blood mononuclear cells; conditions: PBMC; LPS stimulated human peripheral blood mononuclear cells; 18 hours; ELISA of medium; read-out: The median inhibition concentration (IC50, nM) of IL-1β
Protocol: (§1) To study the effect of the compound of the present invention in vitro the inhibition of the IL-1β and TNF-α secretion was measured using the following procedure:
(§2) Cytokine production was measured in the media from lipopolysaccharide (LPS) stimulated peripheral blood mononuclear cells. The mononuclear cells were isolated from human peripheral blood by Lymphoprep® (Nycomed, Norway) fractionation and suspended in RPMI 1640 (growth medium) with foetal calf serum (FCS, 2%), at a concentration of 5×10^5 cells/ml. The cells were incubated in 24-well tissue culture plates in 1 ml aliquots. Test compounds were dissolved in dimethylsulfoxide (DMSO, 10 mM) and were diluted with the medium. Compounds were added to the cells for 30 minutes, then LPS ([…] final concentration) was added. The plates were incubated for 18 hours, and the concentration of IL-1β and TNF-α in the medium was determined by enzyme-linked immunosorbent assays. The median inhibitory concentrations (IC50) of the compounds were calculated.

[2] = system: TNF-α; assay: Inhibition of TNF-α secretion in LPS stimulated peripheral blood mononuclear cells; conditions: PBMC; LPS stimulated human peripheral blood mononuclear cells; 18 hours; ELISA of medium; read-out: The median inhibition concentration (IC50, nM) of TNF-α
Protocol: as §1, §2

[3] = system: PMN-superoxide; assay: Inhibition of PMN (polymorphonuclear) superoxide secretion; conditions: human PMN granulocytes primed with TNF-α, stimulated with fMLP; reduction of ferricytochrome C; read-out: The median inhibition concentration (IC50, nM) of PMN-superoxide
Protocol: The compounds of the present invention also show similar activities in the ability to inhibit PMN (polymorphonuclear) superoxide secretion which is also indicative of potentially useful anti-inflammatory drugs. The compounds were tested using the following procedure:
Human polymorphonuclear (PMN) granulocytes were isolated from human blood by dextran sedimentation, Lymphoprep® fractionation and hypotonic lysis of contaminating erythrocytes. Superoxide anion generation was measured as the superoxide dismutase inhibitable reduction of ferricytochrome C (Madhu, S. B. et al, Inflammation, 16, 241, (1992)). The cells were suspended in Hanks' balanced salt solution, and incubated for 10 minutes at 37° C. with test compounds. The cells were primed by the addition of TNF-α (3 ng/ml final concentration) for 10 minutes, and then ferricytochrome C, (final concentration 750 μg/ml), bovine serum albumin (BSA, final concentration 1 mg/ml) and formyl-methionyl-leucyl-phenylalanine (fMLP, final concentration 10^−7 M) were added for 3 minutes. The cells were chilled on ice, and were spun down. The optical densities in the cell-free supernatant was measured in a spectrophotometer. The median inhibitory concentration (IC50) of the compounds was calculated.

SMILES	IC50 [1] [nM]	IC50 [2] [nM]	IC50 [3] [nM]
Cc1ccccc1Nc1ccc(C(=O)c2ccccc2C)c(Cl)c1 [Compound 102, 2-Chloro-2′-methyl-4-(2-methyl-phenylamino)benzophenone]	13	4	6.3
Cc1ccccc1C(=O)c1ccc(Nc2ccccc2F)cc1Cl [Compound 105, 2-Chloro-4-(2-fluoro-phenylamino)-2′-methylbenzophenone]	25	4	13
Cc1ccccc1C(=O)c1ccc(Nc2cccc(Cl)c2)cc1Cl [Compound 109, 2-Chloro-4-(3-chloro-phenylamino)-2′-methylbenzophenone]	50	7.9	20
Cc1cc(F)ccc1Nc1ccc(C(=O)c2ccccc2C)c(Cl)c1 [Compound 116, 2-Chloro-4-(4-fluoro-2-methyl-phenylamino)-2′-methylbenzophenone]	32	7.9	3.7
Cc1ccccc1C(=O)c1ccc(Nc2ccc(Cl)cc2)cc1Cl [Compound 119, 2-Chloro-4-(4-chloro-phenylamino)-2′-methylbenzophenone]	40	16	5
Cc1ccc(F)cc1Nc1ccc(C(=O)c2ccccc2C)c(Cl)c1 [Compound 130, 2-Chloro-4-(5-fluoro-2-methyl-phenylamino)-2′-methylbenzophenone]	40	6.3	50
Cc1ccccc1C(=O)c1ccc(Nc2cccc(F)c2C)cc1Cl [Compound 131, 2-Chloro-4-(3-fluoro-2-methyl-phenylamino)-2′-methylbenzophenone]	13	4	13
Cc1cc(Br)ccc1Nc1ccc(C(=O)c2ccccc2C)c(Cl)c1 [Compound 136, 4-(4-Bromo-2-methyl-phenylamino)-2-chloro-2′-methylbenzophenone]	100	8	100
Cc1ccccc1C(=O)c1ccc(Nc2ccccc2N)cc1Cl [ref. A), 4-(2-Aminophenylamino)-2-chloro-2′-methylbenzophenone, reference compound]	13	7.1	5
